Measured values reported in patent US12377069B2, “Compounds, compositions, methods of using, and methods for preparing compounds” (UNIVERSITY OF LOUISVILLE RESEARCH FOUNDATION, INC., priority 2018, dated 2025).

Assays:
C57BL/6 mice [1] = assay: In vivo Evans Blue permeability assay (LPS); parameters: species or system mouse; conditions: LPS 100 μg i.p.; for LPS-induced TNF-α levels in serum and BAL fluid: 20 mg/kg; for tissue accumulation of Evans Blue (lung and liver): 20 mg/kg after 1 h and 18 h
Procedure: Acute intoxication of alcohol can induce microvasculature leakage as well as direct exposure to endothelium leads to disruption of endothelial integrity. […] In addition, increased endothelial permeability enhances the extravasation of immune cells into liver leading to increased inflammation. To examine the effect of UroA/UAS03 on endothelial cell permeability, we utilized in vivo Evans Blue permeability assay. Briefly, C57BL/6 mice (n=4/group) were given LPS (100 μg) i.p. followed by treatment with UAS03 or UroA (20 mg/kg) after 1 h and 18 h. Evans blue (i.v.) was given to mice (24 h post LPS treatment) and 30 min later mice were euthanized and the Evans Blue from lung and liver tissues was extracted using formamide. The levels of Evans Blue was determined by OD at 620 nm. […] To evaluate direct impact of UroA or UAS03 on endothelial barrier function, we used in vivo Miles assay to test blood vessel permeability. We used vascular endothelial growth factor (VEGF) as vasodilator. In this assay, C57BL/6 mice (n=3 per group) were given vehicle or UroA or UAS03 (20 mg/kg; oral gavage). After 3 h, Evans blue (100 μL of 1% solution) was administered i.v. followed by intra-dermal administration of VEGF (2.5 ng/mouse) or PBS (control). After 30 min, mice were euthanized and the levels of Evans Blue in skin tissue surrounding the injection site was extracted and estimated as described previously (FIG. 36C). […] To understand molecular mechanisms of UroA/UAS03 mediated endothelial barrier function, we tested the effects of these compounds in Human Umbilical Vein Endothelial Cells (HUVECs). Endotoxins or inflammatory mediators are responsible for decreasing the cell-cell and cell-matrix adhesion leading to increased barrier gaps and permeability. The VE-Cadherin (CDH5), an adherins junction (AJ) protein, can maintain the integrity of endothelial junctions through homotypic interactions with adjacent cell.

NF-κB = NF-κB EMSA assay; type: cell-based, mouse; conditions: LPS 50 ng/mL, 6 hr
Procedure: NF-κB EMSA assay: RAW 264.7 cells or BMDM were plated in 100 mm dishes (1×10^6) in DMEM supplemented with 10% fetal bovine serum (FBS), 100 U/ml penicillin, and […]. Cells were allowed to grow for 24 hr and after incubation, cells were treated with LPS (50 ng/mL) with and without UroA (50 μM) and UAS03 (50 μM) for 6 hr. After treatments, culture medium was removed and washed with PBS. Cells were scraped and pelleted down in PBS. Supernatant was discarded and pellet was used for isolation of nuclear and cytosolic protein using NE-PER Nuclear and Cytoplasmic kit (Thermo Scientific; Cat #78833). Later nuclear protein (2 μg) was used for EMSA using Non-Radioactive EMSA Kits with IR Fluo-Probes for Nuclear factor kappa B p65 (Viagene Biotech Inc Cat #IRTF282 60).

C57BL/6 mice [2] = assay: TNBS-induced colitis; type: in vivo, mouse; conditions: for H&E analysis of colon sections / TNBS-induced body weight loss / TNBS-induced colon shortening / TNBS-induced downregulation of Cldn4 in colons / colon weight to length ratio / disease activity index (DAI) score / neutrophil infiltration (myeloperoxidase (MPO) activity) / serum inflammatory markers IL-6, TNF-α, CXCL1 and IL-10: oral 20 mg/kg at 12 h intervals; for loss of body weight, single treatment / TNBS-induced colitis, single treatment: single oral treatment at 4 or 20 mg/kg; for TNBS-induced colitis, single treatment: 12 h post TNBS
Procedure: 2,4,6-Trinitrobenzenesulfonic acid (TNBS)-induced colitis: Male C57BL/6 or Nrf2^−/− mice (6-8 week old age mice) were anesthetized with ketamine/xylazine (100 mg/12.5 mg/kg IP) mixture and administered with single dose of TNBS (2.5 mg/mice; Sigma Aldrich, USA) in 50% ethanol. After administration of TNBS, mice were held upside down for 30-60 sec to ensure proper distribution of TNBS in the colon. Control group received 50% ethanol without TNBS. Mice with TNBS were randomly divided into three groups, viz. vehicle (0.25% sodium carboxymethylcellulose (CMC)), UroA and UAS03. UroA or UAS03 was resuspended in 0.25% sodium-CMC at desired concentrations. The mice were given orally Veh or UroA or UAS03 in 100 μl at desired concentrations (4 or 20 mg/kg/body weight). The treatment started after 12 hours of TNBS administration and every 12 hours thereafter up to 72 hours. The experiment was terminated post 60 h TNBS, where AhR^−/− mice were involved. In some experiments, we treated only once at post 12 h TNBS administration. TNBS administered and control mice were euthanized for tissue and plasma collection after 80 hours of TNBS/ethanol treatment. Mice were examined for colitis phenotype.
Assessment of colitis severity and tissue collection: Mice were evaluated daily for change in body weight, stool consistency and rectal bleeding and score was given and combined to obtained disease activity index (MURTHY et al., (1993) “Treatment of dextran sulfate sodium-induced murine colitis by intracolonic cyclosporin” Dig Dis Sci, Vol. 38, pp. 1722-1734). After euthanasia, the colon was removed and flushed with PBS containing (1 mM PMSF and 0.2 mM sodium orthovanadate). Colon length and colon weight were measured and small parts of colon were excised for myeloperoxidase (MPO) activity and RNA isolation. Tissues for MPO and RNA extraction were snap frozen in liquid nitrogen and stored in −80° C. until further analysis. Tissue for histological examination was stored in 10% phosphate buffered saline formalin. Blood was collected and serum was separated by centrifugation at 3500×g for 15 min. Serum cytokines (IL-6, TNF-α; Biolegend) and chemokines (CXCL1; R&D Systems) levels were measured by ELISA according to manufacturer's instructions.
In vivo intestinal permeability assay: The gut barrier function was evaluated by in vivo intestinal permeability using FITC-Dextran (MW 4000; FD4, Sigma-Aldrich, USA) (FURUTA et al., (2001) “Hypoxia-inducible factor 1-dependent induction of intestinal trefoil factor protects barrier function during hypoxia” J Exp Med, Vol. 193, pp. 1027-1034). Briefly, mice were orally administered with FITC-dextran (60 mg/100 gm body weight). Mice were fasted for 4 h prior to euthanization. The FITC-dextran concentration in serum was determined using the standard curve of FITC-dextran in serum (excitation, 485 nm; emission, 525 nm; BMG LABTECH).
Myeloperoxidase (MPO) activity: The MPO activity in the colons was determined using the following procedure (KIM et al. (2012) “Investigating intestinal inflammation in DSS-induced model of IBD” J Vis Exp, Vol. 60, Article e3678 (6 pages)). Briefly, colon tissue was homogenized in 0.5% (w/v) hexadecyltrimethylammonium bromide (H6269; Sigma-aldrich, USA) in 50 mM PBS, pH 6.0. This homogenate underwent 3 freeze-thaw cycles and 10-15 sec sonication to obtain homogenous suspension. The supernatant from this suspension was collected after centrifiguaton at 13000×g for 20 min at 4° C. The supernatant (10 μl) was then added to 50 mM potassium phosphate buffer (pH 6.0) containing 0.167 mg/ml o-dianisidine (Sigma-Aldrich, USA) and 0.0005% H2O2(Sigma-Aldrich USA) and absorbance was taken at 450 nm (BMG, LABTECH) at 2 min interval. […]

SMILES | LPS-induced TNF-α levels in serum and BAL fluid (C57BL/6 mice [1]) | tissue accumulation of Evans Blue (lung and liver) (C57BL/6 mice [1]) | LPS-induced NF-κB activation in macrophages (NF-κB) | H&E analysis of colon sections (C57BL/6 mice [2]) | TNBS-induced body weight loss (C57BL/6 mice [2]) | TNBS-induced colon shortening (C57BL/6 mice [2]) | TNBS-induced downregulation of Cldn4 in colons (C57BL/6 mice [2]) | colon weight to length ratio (C57BL/6 mice [2]) | disease activity index (DAI) score (C57BL/6 mice [2]) | neutrophil infiltration (myeloperoxidase (MPO) activity) (C57BL/6 mice [2]) | serum inflammatory markers IL-6, TNF-α, CXCL1 and IL-10 (C57BL/6 mice [2]) | loss of body weight, single treatment (C57BL/6 mice [2]) | TNBS-induced colitis, single treatment (C57BL/6 mice [2])
Oc1ccc2c(c1)COc1cc(O)ccc1-2 [UAS03, 6H-benzo[c]chromene-3,8-diol] | reduced LPS-induced TNF-α levels | reduced tissue accumulation of Evans Blue | reduced the NF-κB activation | less tissue damage and inflammation scores | protected | protected from TNBS-induced colon shortening | protected from TNBS-induced downregulation of Cldn4 | reduced weight to length ratio | reduced | reduced neutrophil infiltration | reduced | did not reach significance | mitigated TNBS-induced colitis
O=c1oc2cc(O)ccc2c2ccc(O)cc12 [UroA, 3,8-dihydroxy-6H-dibenzo[b,d]pyran-6-one] | reduced LPS-induced TNF-α levels | reduced tissue accumulation of Evans Blue | reduced the NF-κB activation | less tissue damage and inflammation scores | protected | protected from TNBS-induced colon shortening | protected from TNBS-induced downregulation of Cldn4 | reduced weight to length ratio | reduced | reduced neutrophil infiltration | reduced | did not reach significance | mitigated TNBS-induced colitis
